Test system: T1, Cohnella sp. A01 laccase
T1 construct: gene multicopper oxidase; recombinant in E. coli BL21, pET-26b(+) NcoI/XhoI, His-tagged, Ni-Sepharose purified
Assay: oxidation followed at […] nm, Michaelis-Menten fit
Format: biochemical
Details: 0.3-2.5 mM DMP; phosphate buffer; assay pH 8 and 90 °C (optimum; not restated for the kinetics)

For `COc1cccc(OC)c1O` [2,6-dimethoxyphenol], the Km was 686 µM.

— publication PMC6819783, “Cohnella sp. A01 laccase: thermostable, detergent resistant, anti-environmental and industrial pollutants enzyme” (Heliyon, 2019)
